Test results from patent US6391916B1, “Enediyne derivatives” (The Hong Kong University of Science and Technology, priority 2000, dated 2002).
Marks after values point to notes of the source that are not given here.

Key:
[1] = system: φX174 RFI (Form I) double stranded DNA; test: DNA cleavage of supercoiled φX174 RFI (Form I) DNA, agarose gel electrophoresis and densitometry; assay type: biochemical; conditions: FIG. 1; 100 μM, pH range 7.0-8.5, 72 hours
[2] = system: φX174 RFI (Form I) double stranded DNA; test: as above; assay type: biochemical; conditions: for net DNA cut (%) / DNA cleavage potency relative to Compound A: 37° C.; for net DNA cut (%): TEA buffer pH 8.5, 20% DMSO; for DNA cleavage potency relative to Compound A: 72 hours
Method: DNA cleavage studies on the compounds of this invention were performed by using supercoiled, covalently closed, circular φX174 RFI (Form I) double stranded DNA. Thus, a 54.3 μM/bp (micromolar per base pair) solution of φX174 RFI DNA and a compound in the indicated concentration in TEA buffer (pH 8.5) containing 20% DMSO was incubated at 37° C. for 48-72 hours and analyzed by 1% agarose gel electrophoresis to separate the various forms of DNA. DNA cleavage was indicated by the formation of nicked relaxed circular DNA (Form II) or linearized DNA (Form III), which was visualized using ethidium bromide stain. A photo picture of the gel was taken over a 365 nanometer ultra-violet light transilluminator and the relative densities of DNA bands were quantitated by a GS-700 imaging densitometer (BIO-RAD). The percentage of net DNA cleavage was calculated by the following equation:
Net DNA Cleavage (%)={[(Form II)s+2×(Form III)s]/[(Form I)s+(Form II)s+2×(Form III)s]×100}−{(Form II)c/[(Form I)c+(Form II)c]×100}
wherein the subscripts “s” and “c” refer to as the samples and controls, respectively.

[3] = system: P388 mice T cell leukemia cells; test: Cytotoxicity by MTT assay in P388 cells; assay type: cell-based, mouse
Method: Cytotoxicity was assessed in P388 mice T cell leukemia cells by MTT [3-(4,5-dimethylthiazol-2-yl)-2,5-diphenyl-2H-tetrazolium bromide] assay. Cell suspension (1×10^5 cells/mL) was plated in 96 well microtiter plates at 50 μL/well and it was followed by 50 μL/well of the test compound in serially diluted concentrations. The cells were incubated at 37° C. in a humidified atmosphere containing 5% CO2 in air for 72 hours at which time the tetrazolium dye, MTT, was added. After another 3 hours incubation, 100 μL/well of acidified 2-propanol (0.04 N HCl) was added. The optical densities of the plates were measured with a microplate reader (BIO-RAD) at 570 nm. The greater the absorbance the greater the number of live cells. The results are expressed as an IC50 which is the drug concentration required to inhibit cell proliferation to 50% of that of untreated control cells. The detailed procedure is found in Mosman, J. Immunol. Methods 65:55 (1983); Ferrari et al., Immunol. Methods 131:165 (1990).

[4] = at 37° C.; cited from earlier work
[5] = P388 mouse leukemia cells, 37° C., 72 h, 5% CO2

Compound | net DNA cut (%) ([2]; At 20 μM) | IC50 [3, 5] [µM] | also measured
CC(=O)OC1C#CCCCCC#C/C1=C\c1ccccc1 (stereo not drawn) [Compound 29, (E)-3-Acetoxy-4-(phenylmethylidene)cyclodeca-1,5-diyne] | 19.3[b] % | 48 | DNA cleavage activity (in words) [1]: slightly higher DNA cleavage activity in the basic pHs
COc1ccc(/C=C2\C#CCCCCC#CC2OC(C)=O)cc1 (stereo not drawn) [Compound 30a, (E)-3-Acetoxy-4-[(4′-methoxyphenyl)methylidene]cyclodeca-1,5-diyne] | 86.4[b] % | 15 | –
C1#CCCCCC#C/C(C2OCc3ccccc32)=C\1 (stereo not drawn) [Compound 51, 3-[2′,5′-Dihydrobenzofuran-2′-yl]cyclodeca-3-en-1,5-diyne] | – | – | DNA cleavage activity (in words) ([2]; FIG. 6, 100 μM, pH 8.5): less potent than Compound 42
CCC(=O)OC1C#CCCCCC#C/C1=C\c1cccc2ccccc12 (stereo not drawn) [Compound 36, (E)-4-(1′-Naphthylmethylidene)-3-(propanoyloxy)cyclodeca-1,5-diyne] | – | 10 | –
CC(=O)OC1C#CCCCCC#C/C1=C\c1ccc2ccccc2c1 (stereo not drawn) [Compound 30c, (E)-3-Acetoxy-4-(2′-naphthylmethylidene)cyclodeca-1,5-diyne] | 82.3[b] % | 2.8 | IC50 ([3]; Mus musculus, P388 cells): 2.8 µM
COCC(=O)OC(/C1=C/C#CCCCCC#C1)c1ccc2ccccc2c1 (stereo not drawn) [Compound 43b, 3-[(1′-Methoxyacetoxy-1′-(2″-naphthyl))methyl]cyclodeca-3-en-1,5-diyne] | 77.8[b] % | 9.6 | –
COCC(=O)OC(C1=CC#CCCCCC#C1)c1ccccc1CO[Si](C)(C)C(C)(C)C (stereo not drawn) [Compound 45, 3-[1′-(2″-(((tert-Butyldimethyl)silyloxy)methyl)phenyl)-1′-(methoxyacetoxy)methyl]cyclodeca-3en-1,5-diyne] | – | 12 | net DNA cut (%) ([2]; At 100 μM): 4.13[c] %
OC1C#CCCCCC#C/C1=C\c1ccccc1 (stereo not drawn) [Compound 6, (E)-4-(Phenylmethylidene)cyclodeca-1,5-diyn-3-ol] | – | – | DNA cleavage activity (in words) [1]: less potent compared to the corresponding acetate, Compound 29
CCCCCCCC(=O)OC1C#CCCCCC#C/C1=C\c1cccc2ccccc12 (stereo not drawn) [Compound 37, (E)-4-(1′-Naphthylmethylidene)-3-(octanoyloxy)cyclodeca-1,5-diyne] | – | 13 | net DNA cut (%) ([2]; At 5 μM): 4.67[d] %; DNA cleavage activity relative to Compound 32b ([2]; FIG. 5, 5 μM, pH 8.5): ca. one eighth
CC(=O)OC1C#CCCCCC#C/C1=C\c1ccccc1CO[Si](C)(C)C(C)(C)C (stereo not drawn) [Compound 34a, (E)-3-Acetoxy-4-[2′-((((tert-butyldimethyl)silyloxy)methyl)phenyl)methylidene]cyclodeca-1,5-diyne] | – | > 50 | net DNA cut (%) ([2]; At 100 μM): 10.7[c] %
COCC(=O)OC1C#CCCCCC#C/C1=C\c1ccccc1CO (stereo not drawn) [Compound 35b] | – | 16 | net DNA cut (%) ([2]; At 100 μM): 17.6[c] %
COCC(=O)OC1C#CCCCCC#C/C1=C\c1ccc2ccccc2c1 (stereo not drawn) [Compound 32c, (E)-3-Methoxyacetoxy-4-(2′-naphthylmethylidene)cyclodeca-1,5-diyne] | 71.9[b] % | 28 | –
C1#CCCCCC#CC=C1 [cyclodeca-1,5-diyn-3-ene] | – | – | half-life [4]: 18 h
COc1ccc(OC)c(C(=O)OC2C#CCCCCC#C/C2=C\c2cccc3ccccc23)c1 (stereo not drawn) [Compound 40, (E)4-(1′-Naphthylmethylidene)-3-((2″,5″-dimethoxybenzoyl)oxy)cyclodeca-1,5-diyne] | – | 17 | net DNA cut (%) ([2]; At 5 μM): 35.6[d] %; DNA cleavage activity (in words) ([2]; FIG. 5, 5 μM, pH 8.5): little effect as compared to the acetate in Compound 30b
O=C(OC1C#CCCCCC#C/C1=C\c1cccc2ccccc12)c1cccc2cc3ccccc3cc12 (stereo not drawn) [Compound 41, (E)-3-[(1′-Anthracenecarbonyl)oxy]-4-(1″-naphthylmethylidene)cyclodeca-1,5-diyne] | – | 11 | net DNA cut (%) ([2]; At 5 μM): 10.6[d] %; DNA cleavage activity (in words) ([2]; FIG. 5, 5 μM, pH 8.5): reduced the DNA cleaving potency
CC(=O)OC1C#CCCCCC#C/C1=C\c1ccccc1CO (stereo not drawn) [Compound 35a, (E)-3-Acetoxy-4-[2′-((hydroxymethyl)phenyl)methylidene]cyclodeca-1,5-diyne] | – | 21 | net DNA cut (%) ([2]; At 100 μM): 23.5[c] %
COCC(=O)OC(/C1=C/C#CCCCCC#C1)c1ccccc1 (stereo not drawn) [Compound 42, 3-[(1′-Methoxyacetoxy-1′-phenyl)methyl]cyclodeca-3-en-1,5-diyne] | 12.9[b] % | 7.7 | DNA cleavage potency relative to Compound A ([2]; FIG. 2, pH 8.5): ca. 100 fold
COCC(=O)OC1C#CCCCCC#C/C1=C\c1cccc2ccccc12 (stereo not drawn) [Compound 32b, (E)-3-Methoxyacetoxy-4-(1′-naphthylmethylidene)cyclodeca-1,5-diyne] | 87.4[b] % | 12 | net DNA cut (%) ([2]; At 5 μM): 38.8[d] %
COc1ccc(COCC(=O)OC2C#CCCCCC#C/C2=C\c2cccc3ccccc23)cc1 (stereo not drawn) [Compound 39, (E)-3-[(4′-Methoxybenzyl)oxy]acetoxy-4-(1″-naphthylmethylidene)cyclodeca-1,5-diyne] | – | 97 | net DNA cut (%) ([2]; At 5 μM): 26.1[d] %
CC(=O)OC1C#CCCCCC#C/C1=C\c1cccc2ccccc12 (stereo not drawn) [Compound 30b, (E)-3-Acetoxy-4-(1′-naphthylmethylidene)cyclodeca-1,5-diyne] | 77.7[b] % | 2.4 | net DNA cut (%) ([2]; At 5 μM): 33.5[d] %; IC50 ([3]; Mus musculus, P388 cells): 2.4 µM
COCC(=O)OC(/C1=C/C#CCCCCC#C1)c1cccc2ccccc12 (stereo not drawn) [Compound 43a, 3-[(1′-Methoxyacetoxy-1′-(1″-naphthyl))methyl]cyclodeca-3-en-1,5-diyne] | 67.4[b] % | 3.8 | –
COCC(=O)OC1C#CCCCCC#C/C1=C\c1ccccc1CO[Si](C)(C)C(C)(C)C (stereo not drawn) [Compound 34b, (E)-4-[2′-((((tert-butyldimethyl)silyloxy)methyl)phenyl)methylidene]-3-(methoxyacetoxy)cyclodeca-1,5-diyne] | – | > 50 | net DNA cut (%) ([2]; At 100 μM): 14.4[c] %
COc1ccc(C(O)/C2=C/C#CCCCCC#C2)cc1 (stereo not drawn) [Compound 33, 3-[1′-Hydroxy-1′-(4″-methoxyphenyl)methyl]cyclodeca-3-en-1,5-diyne] | – | – | DNA cleavage activity (in words) ([2]; FIG. 4, 20 μM, pH 8.5): reduced DNA cleavage activity
COCC(=O)OC(/C1=C/C#CCCCCC#C1)c1ccccc1CO (stereo not drawn) [Compound 48] | – | 8.1 | –
COCC(=O)OC1C#CCCCCC#C/C1=C\c1ccccc1 (stereo not drawn) [Compound 31, (E)-3-Methoxyacetoxy4-(phenylmethylidene)cyclodeca-1,5-diyne] | 13.2[b] % | 23 | DNA cleavage potency relative to Compound A ([2]; FIG. 2, pH 8.5): ca. 100 fold; DNA cleavage activity (in words) ([2]; FIG. 2, concentration range 5-100 μM, pH 8.5): same level of DNA cleavage activity as enediyne, Compound 42
O=C(COCc1ccccc1)OC1C#CCCCCC#C/C1=C\c1cccc2ccccc12 (stereo not drawn) [Compound 38, (E)-3-(Benzyloxy)acetoxy4-(1′-naphthylmethylidene)cyclodeca-1,5-diyne] | – | 6.7 | net DNA cut (%) ([2]; At 5 μM): 38.6[d] %
